Reference: DBAASP
Converted amounts (≈) assume the structure as drawn.

How the values were obtained:
Experiment in all cases: ≥ marks a high value that may be exact or a test limit, other limits are often not marked, values filed in µg/mL are converted to µM
[1] = test system: Mycobacterium tuberculosis WXY
[2] = test system: Mycobacterium tuberculosis CAS3
[3] = test system: Mycobacterium tuberculosis H37Rv
[4] = test system: Escherichia coli CIP 54.8T
[5] = test system: Escherichia coli C600
[6] = test system: Bacillus subtilis VKM B-501
[7] = test system: Staphylococcus aureus 209P
[8] = test system: Escherichia coli ATCC 25922
[9] = test system: Staphylococcus aureus ATCC 25923
[10] = test system: Listeria monocytogenes EGD
[11] = test system: Pseudomonas aeruginosa ATCC 27853
[12] = test system: Legionella pneumophila Lens
[13] = test system: Pseudomonas aeruginosa
[14] = test system: Staphylococcus aureus ATCC 43300
[15] = test system: Escherichia coli ATCC BAA-2523
[16] = test system: Enterococcus faecalis VR
[17] = test system: Enterococcus faecalis
[18] = test system: Staphylococcus aureus ATCC 29213
[19] = test system: Acinetobacter baumannii KCCM 1053
[20] = test system: Salmonella typhimurium KCTC 1926
[21] = test system: Pseudomonas aeruginosa KCTC 1637
[22] = test system: Staphylococcus aureus KCCM 40510
[23] = test system: Staphylococcus aureus KCTC 1621
[24] = test system: Bacillus subtilis KCTC 3068
[25] = test system: Enterococcus faecalis KCCM 11814
[26] = test system: Escherichia coli KCTC 1682
[27] = test system: Acinetobacter baumannii ATCC BAA-1605
[28] = test system: Pseudomonas aeruginosa CCARM 2180
[29] = test system: Enterococcus faecalis ATCC 51575
[30] = test system: Staphylococcus epidermidis KCTC 1917
[31] = test system: Acinetobacter baumannii
[32] = test system: Staphylococcus epidermidis
[33] = test system: Enterococcus sp.
[34] = test system: Escherichia coli ESBL
[35] = test system: Klebsiella pneumoniae
[36] = test system: Staphylococcus aureus

CC(C)C[C@H](NC(=O)[C@H](CC(C)C)NC(=O)[C@H](CCCCN)NC(=O)[C@H](CCCCN)NC(=O)[C@@H](NC(=O)[C@H](C)N)C(C)C)C(=O)N[C@@H](C)C(=O)N[C@@H](C)C(=O)N[C@@H](C)C(=O)N[C@@H](CO)C(=O)N[C@@H](C)C(=O)N[C@@H](C)C(=O)N[C@@H](C)C(=O)N[C@@H](CCCCN)C(=O)N[C@@H](CCCCN)C(=O)O [AVKKLLAAASAAAKK]
MIC [1]: ≥ 139 µM | MIC [2]: ≥ 139 µM | MIC [3]: ≥ 139 µM

CC[C@H](C)[C@H](NC(=O)[C@H](Cc1cnc[nH]1)NC(=O)[C@H](Cc1cnc[nH]1)NC(=O)[C@H](Cc1ccccc1)NC(=O)[C@@H](NC(=O)[C@H](CCCCN)NC(=O)[C@@H](NC(=O)[C@@H](N)Cc1ccccc1)[C@@H](C)CC)[C@@H](C)CC)C(=O)N[C@@H](Cc1ccccc1)C(=O)N[C@@H](CCCCN)C(=O)NCC(=O)N[C@@H](CC(N)=O)C(=O)N1CCC[C@H]1C(=O)N[C@@H](CCCCN)C(=O)N[C@@H](Cc1ccccc1)C(=O)N[C@@H](CO)C(=O)N[C@H](C(=O)N[C@H](C(=O)N[C@@H](CCCCN)C(=O)O)[C@@H](C)CC)[C@@H](C)CC [FIKIFHHIFKGNPKFSIIK]
MIC [4]: ≥ 150 µM

CSCC[C@H](NC(=O)[C@H](CCCCN)NC(=O)CN)C(=O)N[C@@H](CCCCN)C(=O)N[C@@H](CCC(=O)O)C(=O)N[C@@H](Cc1ccc(O)cc1)C(=O)N[C@@H](Cc1ccccc1)C(=O)N[C@@H](CCCCN)C(=O)N[C@@H](CCCCN)C(=O)N[C@@H](Cc1ccccc1)C(=O)NCC(=O)N[C@@H](C)C(=O)N[C@@H](CO)C(=O)N[C@@H](Cc1ccccc1)C(=O)N[C@@H](CCCCN)C(=O)N[C@@H](CCCN=C(N)N)C(=O)N[C@@H](CCCN=C(N)N)C(=O)N[C@@H](Cc1ccccc1)C(=O)N[C@@H](C)C(=O)N[C@@H](CC(N)=O)C(=O)N[C@@H](CC(C)C)C(=O)N[C@@H](CCCCN)C(=O)N[C@@H](CCCCN)C(=O)N[C@@H](CCCN=C(N)N)C(=O)N[C@@H](CC(C)C)C(N)=O [GKMKEYFKKFGASFKRRFANLKKRL]
MIC [5]: 1.5 µM (≈ 4.62 µg/mL) | MIC [6]: 0.7 µM (≈ 2.16 µg/mL) | MIC [7]: 3 µM (≈ 9.24 µg/mL)

CC[C@H](C)[C@H](NC(=O)[C@H](C)NC(=O)CNC(=O)[C@H](CCCCN)NC(=O)[C@@H](NC(=O)[C@H](CC(C)C)NC(=O)[C@H](C)NC(=O)[C@H](CC(C)C)NC(=O)[C@@H](NC(=O)[C@@H](NC(=O)[C@H](Cc1ccc(O)cc1)NC(=O)[C@@H](NC(=O)[C@H](Cc1ccccc1)NC(=O)[C@H](CCCCN)NC(=O)[C@H](CCCCN)NC(=O)[C@@H](N)CCCCN)[C@@H](C)CC)[C@@H](C)CC)C(C)C)[C@@H](C)CC)C(=O)N[C@H](C(=O)N[C@@H](CCCCN)C(=O)N[C@@H](CCCCN)C(=O)NCC(N)=O)[C@@H](C)CC [KKKFIYIVLALIKGAIIKKG]
MIC [8]: 32 µM (≈ 71.8 µg/mL) | MIC [9]: 64 µM (≈ 144 µg/mL) | MIC [10]: ≥ 32 µM | MIC [11]: 64 µM (≈ 144 µg/mL)

CC[C@H](C)[C@H](NC(=O)[C@H](CC(C)C)NC(=O)[C@H](CCCCN)NC(=O)[C@H](CCCCN)NC(=O)[C@@H](NC(=O)[C@@H](NC(=O)[C@H](CCC(=O)O)NC(=O)[C@@H](NC(=O)[C@@H](NC(=O)[C@H](CCCCN)NC(=O)[C@H](C)NC(=O)[C@@H](NC(=O)[C@@H](NC(=O)[C@H](CC(=O)O)NC(=O)[C@H](C)NC(=O)[C@@H](N)CCSC)C(C)C)[C@@H](C)CC)[C@@H](C)CC)C(C)C)[C@@H](C)CC)C(C)C)C(=O)N[C@@H](CC(=O)O)C(=O)N[C@@H](CCC(N)=O)C(=O)N[C@@H](Cc1ccccc1)C(=O)N[C@H](C(=O)N[C@@H](CCC(N)=O)C(=O)N[C@@H](CCCCN)C(=O)O)[C@@H](C)O [MADVIAKIVEIVKKLIDQFTQK]
MIC [12]: 0.62 µM (≈ 1.57 µg/mL)

CC(C)C[C@H](NC(=O)[C@@H](N)CCC(N)=O)C(=O)NCC(=O)N[C@@H](CCCCN)C(=O)N[C@@H](CCCCN)C(=O)N[C@@H](CCCCN)C(=O)N[C@@H](Cc1cnc[nH]1)C(=O)N[C@@H](CCCN=C(N)N)C(=O)N[C@@H](CCCN=C(N)N)C(=O)N[C@@H](CCCN=C(N)N)C(=O)N1CCC[C@H]1C(=O)N[C@@H](CO)C(=O)N[C@@H](CCCCN)C(=O)N[C@@H](CCCCN)C(=O)N[C@@H](CCCCN)C(=O)N[C@@H](CCCN=C(N)N)C(=O)N[C@@H](Cc1cnc[nH]1)C(=O)N[C@@H](Cc1c[nH]c2ccccc12)C(=O)O [QLGKKKHRRRPSKKKRHW]
MIC [13]: > 128 µM | MIC [8]: > 128 µM | MIC [14]: 128 µM (≈ 301 µg/mL) | MIC [15]: ≥ 128 µM | MIC [11]: > 128 µM | MIC [16]: ≥ 128 µM | MIC [17]: ≥ 128 µM | MIC [18]: 128 µM (≈ 301 µg/mL)

CC[C@H](C)[C@@H]1NC(=O)[C@H](CCCN=C(N)N)NC(=O)[C@@H](NC(=O)[C@H](CC(C)C)NC(=O)[C@@H](N)CCCN=C(N)N)CSSC[C@@H](C(=O)N[C@@H](CCCN=C(N)N)C(=O)O)NC(=O)[C@H](Cc2c[nH]c3ccccc23)NC(=O)[C@H](CCCN=C(N)N)NC(=O)[C@H]([C@@H](C)CC)NC(=O)[C@H](Cc2c[nH]c3ccccc23)NC(=O)[C@H](Cc2c[nH]c3ccccc23)NC1=O [RLCRIWWIRWCR]
MIC [19]: 22.6 µM (≈ 39.5 µg/mL) | MIC [20]: 8 µM (≈ 14 µg/mL) | MIC [21]: 4 µM (≈ 6.98 µg/mL) | MIC [22]: 22.6 µM (≈ 39.5 µg/mL) | MIC [23]: 16 µM (≈ 27.9 µg/mL) | MIC [24]: ≥ 32 µM | MIC [25]: ≥ 32 µM | MIC [26]: 2.83 µM (≈ 4.94 µg/mL) | MIC [27]: ≥ 64 µM | MIC [28]: ≥ 64 µM | MIC [29]: 11.3 µM (≈ 19.7 µg/mL) | MIC [30]: 8 µM (≈ 14 µg/mL)

CC(C)C[C@H](NC(=O)CNC(=O)[C@H](CCCCN)NC(=O)[C@@H](NC(=O)[C@H](CCCCN)NC(=O)[C@H](CCCCN)NC(=O)[C@@H](NC(=O)[C@@H](NC(=O)[C@H](CCCCN)NC(=O)[C@@H](NC(=O)[C@H](CCCCN)NC(=O)CNC(=O)[C@H](CCCN=C(N)N)NC(=O)[C@H](Cc1ccc(O)cc1)NC(=O)[C@H](CC(C)C)NC(=O)[C@H](CCCCN)NC(=O)CNC(=O)[C@H](Cc1ccccc1)NC(=O)[C@@H](N)Cc1c[nH]c2ccccc12)[C@@H](C)O)C(C)C)C(C)C)C(C)C)C(=O)N[C@@H](CC(C)C)C(=O)N[C@@H](CCCCN)C(=O)NCC(=O)O [WFGKLYRGKTKVVKKVKGLLKG]
MIC [31]: 2.47 µM (≈ 6.25 µg/mL) | MIC [13]: 4.93 µM (≈ 12.5 µg/mL) | MIC [32]: 9.87 µM (≈ 25 µg/mL) | MIC [33]: 9.87 µM (≈ 25 µg/mL) | MIC [34]: 2.47 µM (≈ 6.25 µg/mL) | MIC [35]: 4.93 µM (≈ 12.5 µg/mL) | MIC [36]: 9.87 µM (≈ 25 µg/mL)
